Type in all cases: cell-based
The test system of assay [1] is PhtTa-PhtTb TAXI-TRAP transporter. Briefly: [14C]-PA uptake assay in Azoarcus sp. CIB (pIZPHTRAP) cells expressing the transporter. The conditions noted are these: for [14C]-PA uptake rate, % of the rate in the absence of a competitor substrate: 25 µM [14C]-PA; for [14C]-PA uptake after pre-incubation with inhibitor: cells pre-incubated 10 min with 1 mM inhibitor before the transport assay. As to the method:
Cells were grown in NB from A600 of 0.1 to A600 of 1.8≈2.0, incubated for 14h, induced by adding 1.0 mM IPTG. Cells were harvested by centrifugation, washed twice in sodium salt and suspended at a cell density of 1090 mg of protein/liter (A600 of 4.0) in sodium salt. […] Phthalate uptake was stopped by diluting the suspensions with 1 mL of ice-cold sodium salt, collecting the cells on a 0.22-µm-pore-size Millipore GSWP nitrocellulose filter, and washing, under suction, the cells with 5 mL of ice-cold sodium salt. The filter was dissolved in 2 ml of scintillation fluid (Cocktail Ready Safe, Beckman) and counted in an LKB Wallac liquid scintillation counter. […]
We have shown above that the phtTa-phtTb transport genes are essential for the anaerobic degradation of PA. To confirm that the phtTa-phtTb genes encode a PA transporter and to determine its biochemical properties, we performed PA uptake experiments at different [^14C]-PA concentrations in Azoarcus sp. […] CIB (pIZPHTRAP), i.e., cells that express the catabolic pht genes as well as the phtTa-phtTb transport genes - the genetic cassette of the invention. […]. […] [^14C]-PA uptake rates were tested in the presence of non-radioactive phthalate isomers as competitors.

Assay [2] relates to Azoarcus sp. CIB (pIZPHTRAP) strain.
Assay [3] relates to benA gene. Briefly: real-time RT-PCR gene expression in C. necator H16 (pIZPHTRAP) cells. The conditions noted are these: cells grown on 3 mM PA compared with 18 mM pyruvate (control); result in words. As to the method: (§1) Cupriavidus necator H16 and Azoarcus sp. CIB cells harboring plasmid pIZPHTRAP were grown aerobically on PA-, benzoate- or pyruvate-containing MC medium until the culture reached to the end of the exponential phase. Cells were lysed in TE buffer (10 mM Tris-HCI, pH 7.5, 1 mM EDTA) containing 50 mg ml^-1 lysozyme. Total RNA was extracted using a High Pure RNA isolation kit (Roche), and then it was DNase-treated with a Turbo DNase kit (Ambion). The concentration and purity of the RNA samples were assessed using a Nanophotometer Pearl (Implen) according to the manufacturer's protocols, and by testing the absence of DNA through PCR amplification. Synthesis of total cDNA was performed by using the Transcriptor First Strand cDNA Synthesis kit (Roche) in 20-µl reactions containing 1 µg of RNA, 1 mM concentration of each dNTP, 10 units of reverse transcriptase, 20 units of Protector RNase Inhibitor, and 60 µM random hexamers as primers in the buffer provided by the manufacturer. The RNA and hexamers were initially heated at 65 °C for 10 min and following the addition of the rest of the components, samples were incubated at 25°C for 10 min and then at 55°C for 30 min. Reactions were terminated by incubation at 85°C for 5 min. In standard RT-PCR reactions, the cDNA was amplified with 1 unit of AmpliTaq DNA polymerase (Biotools) and […] concentrations of the corresponding primer pairs of the boxB gene from Azoarcus sp. CIB (Table 2). […] For relative quantification of the fluorescence values, a calibration curve was constructed by sevenfold serial dilutions of a C. necator H16 genomic DNA sample ranging from 1 ng to 0.5 x10-7 ng. […]
(§2) To confirm that C. necator H16 (pIZPHTRAP) was degrading PA via the box pathway, we analyzed the expression of some marker genes of the classical ben-cat pathway, e.g. benA gene, and the hybrid box pathway, e.g., boxB1 (for cluster box1) and boxB2 (for cluster box2) (Fig. 5C). qRT-PCR gene expression studies of C. necator H16 (pIZPHTRAP) cells grown on PA were compared with those of cells grown on pyruvate (control). […]

Assay [4] relates to boxB2 gene. The assay is described as above. To be noted: cells grown on 3 mM PA compared with 18 mM pyruvate (control). As to the method:
as §1, §2

In assay [5] the test system is boxB1 gene. The assay is described as above. The conditions noted are these: cells grown on 3 mM PA compared with 18 mM pyruvate (control). As for the experimental part:
as §1, §2

Assay [6] concerns A. evansii cells. The assay is described as follows: [14C]-PA uptake assay in A. evansii cells grown under nitrate-reducing conditions. To be noted: Aromatoleum evansii; cells grown anaerobically on PA, exposed to 1 mM inhibitor before the [14C]-PA transport assay; read-out: PA transport capacity retained. As for the experimental part:
Cells were grown in NB from A600 of 0.1 to A600 of 1.8≈2.0, incubated for 14h, induced by adding 1.0 mM IPTG. Cells were harvested by centrifugation, washed twice in sodium salt and suspended at a cell density of 1090 mg of protein/liter (A600 of 4.0) in sodium salt. The uptake of radioactive o-phthalate into cells was followed in a reaction mixture containing 50 µL of prewarmed cells (at 30°C for 5 min) and 50 µL of 250 µM [^14C]-o-phthalate. […] Phthalate uptake was stopped by diluting the suspensions with 1 mL of ice-cold sodium salt, collecting the cells on a 0.22-µm-pore-size Millipore GSWP nitrocellulose filter, and washing, under suction, the cells with 5 mL of ice-cold sodium salt. The filter was dissolved in 2 ml of scintillation fluid (Cocktail Ready Safe, Beckman) and counted in an LKB Wallac liquid scintillation counter. […] To test the transporter's specificity the assays were performed according to the standard procedure but adding different unlabeled substrates: o-phthalate (250 mM), isophthalate (250 mM), terephthalate (250 mM).
To study PA transport in denitrifying bacteria expressing the pht peripheral pathway, we used A. evansii cells grown anaerobically in MC medium containing 5 mM benzoate or 5 mM PA. Cells suspended in sodium salt were incubated with 25 µM [^14C]-PA, and a time-course of the amount of [^14C]-PA incorporated into the cells was determined. […]

Assay [7] has as its system C. necator H16 (pIZPHTRAP) cells. The assay is described as follows: PHB content by GC-MS of the methanolysed polyester, aerobic bioconversion. To be noted: cells grown aerobically on the substance as sole carbon source (3 mM), MC medium, 30°C, stationary phase.

Take `O=C(O)c1cccc(C(=O)O)c1` [isophthalate, reference compound]: the “[14C]-PA uptake rate, % of the rate in the absence of a competitor substrate” value in assay [1] (250 µM unlabeled competitor) was 50%.

For `O=C(O)c1ccc(C(=O)O)cc1` [terephthalate, reference compound], in assay [1] (250 µM unlabeled competitor), the “[14C]-PA uptake rate, % of the rate in the absence of a competitor substrate” value was 60%.

Take `O=C(O)c1ccccc1C(=O)O` [PA, o-phthalate]: the “PHB production efficiency, lower than that of the recombinant C. necator H16 strain” value in assay [2] worked out at 5 fold. The “uptake rate of 25 µM [14C]-PA with competitor” value in assay [1] (250 µM unlabeled competitor, result in words) is “completely inhibited”. Also, the Michaelis-Menten constant (Km) in assay [1] (Azoarcus sp. CIB (pIZPHTRAP) cells, read-out: transport affinity (Km)) is 15 µM. For the same compound, the saturation kinetics result in assay [1] (PA concentration at saturation, Azoarcus sp. CIB (pIZPHTRAP) cells) is “about 20 µM”. Moreover, the maximum uptake rate entry in assay [1] ([14C]-PA 5 to 25 µM, Azoarcus sp. CIB (pIZPHTRAP) cells) was “about 156 ± 14 pmol min^-1 mg protein^-1”. Also, in assay [3], the “basal expression of the benA gene” value is listed as “similar”. For the same compound, the fold induction at 3000 µM was approximately 400 in assay [4] and approximately 40 in assay [5].

`C(=NC1CCCCC1)=NC1CCCCC1` [DCCD, 1,3-dicyclohexylcarbodiimide, reference compound]: in assay [1] (result in words), the “[14C]-PA uptake after pre-incubation with inhibitor” value is listed as “did not decrease”. Further, the activity at 1000 µM in assay [6] is more than 80%.

For the compound `O=C(O)c1ccccc1` [benzoate], in assay [7], the “PHB accumulated, of the total cell dry weight” value was 14%.

For the compound `O=[N+]([O-])c1ccc(O)c([N+](=O)[O-])c1` [DNP, 2,4-dinitrophenol, reference compound], in assay [1] (result in words), the “[14C]-PA uptake after pre-incubation with inhibitor” value was “completely inhibited”.
